Results taken from patent publication US5240935A, “Substituted 2-azabicyclo[2.2.2]octane derivatives and compositions and method of use thereof” (Sterling Winthrop Inc., priority 1992, dated 1993).
Counter-ions that a name gives are not always drawn. Like-named read-outs stand apart in the source and are kept apart here.

Tests used:
[1] = biological target: T1, sigma receptors (Cavia porcellus, UniProt Q60492); experiment: sigma receptor binding, [^3 H](+)-pentazocine, guinea pig brain membranes; design: species or system guinea pig (male Hartley); settings: for Ki: mean of at least two separate determinations in triplicate, EBDA/LIGAND; for inhibition at 10 µM: read-out: Percent Inhibition of [^3 H](+)-pentazocine binding
T1 construct: Brain tissue was prepared from male Hartley guinea pigs; from tissue; host or cells: brain membranes of male Hartley guinea pigs (22,000 x g pellet)
Experimental: Brain tissue was prepared from male Hartley guinea pigs (Hazelton Labs, Denver, Pa.) which were anesthetized with CO2 and sacrificed by decapitation. All animal care and use procedures were in accord with the "Guide for the Care and Use of Laboratory Animals" (NIH Publ. No. 86-23, 1985). Homogenization was performed in 10 volumes (wt/vol) of 0.32M sucrose with a Brinkmann Polytron at setting 5, 30 sec. The homogenate was centrifuged at 900×g for 10 min at 4° C., and the supernatant was collected and centrifuged at 22,000×g for 20 min at 4° C. The pellet was resuspended in 10 volumes of Tris-HCl buffer (50 mM, pH 7.4), incubated at 37° C. for 30 min, and centrifuged at 22,000×g for 20 min at 4° C. Following this, the pellet was resuspended in Tris buffer and frozen in 5-10 mL aliquots corresponding to a tissue concentration of 100 mg/mL, at -70° C. Binding characteristics of the membranes were stable for at least one month when stored at -70° C.
On the day of the assay, membrane aliquots were thawed, resuspended in fresh Tris-HCl buffer and stored on ice until use. Each assay tube contained 100 μL of [^3 H]-(+)-pentazocine at a final concentration of approximately 0.5 nM or 100 μL of [^3 H]-di(2-tolyl)guanidine (DTG) at a final concentration of approximately 4 nM, 100 μL of various concentrations of the compounds of interest, 500 μL of the tissue suspension and 300 μL of buffer to a final assay volume of 1 mL and a final tissue concentration of approximately 8 mg/tube, corresponding to approximately 0.15 mg protein/tube. Non-specific binding was defined by addition of a final concentration of 1 μM haloperidol to blank tubes for [^3 H](+)-pentazocine assay or by addition of a final concentration of 10 μM haloperidol to blank tubes for [^3 H]DTG assay. All tubes were incubated at 37° C. for 150 min in the [^3 H](+)-pentazocine assay or at 25° C. for 90 min in the [^3 H]DTG assay before termination of the reaction by rapid filtration over Whatman GF/B glass fiber filters that were presoaked in a solution of 0.5% polyethylenimine for at least 1 hr prior to use. Filters were washed with three 4 ml volumes of cold Tris-HCl buffer.
Following addition of scintillation cocktail, samples were allowed to equilibrate for at least 4 hr. The amount of bound radioactivity was determined by liquid scintillation spectrometry using a Beckman LS 5000 TA liquid scintillation counter with an efficiency for tritium of approximately 60%. The results are reported as a percent (%) inhibition of binding at 10 μM.
Scatchard parameters and inhibition constants (Ki values) for the binding of test compounds were also calculated using the EBDA/LIGAND program (McPherson, J. Pharmacol. Meth. 1985, 14, 213-228), purchased from Elsevier/Biosoft, Inc The Ki values are expressed as the mean of at least two separate determinations performed in triplicate.

[2] = biological target: sigma receptors; experiment: sigma receptor binding, [^3 H]di(2-tolyl)guanidine (DTG), guinea pig brain membranes; design: species or system guinea pig (male Hartley); settings: [^3 H]DTG approx. 4 nM, 25° C., 90 min; for Ki: mean of at least two separate determinations in triplicate, EBDA/LIGAND; for Percent Inhibition of [^3 H]DTG binding: at 10 μM
Experimental: Brain tissue was prepared from male Hartley guinea pigs (Hazelton Labs, Denver, Pa.) which were anesthetized with CO2 and sacrificed by decapitation. […] Homogenization was performed in 10 volumes (wt/vol) of 0.32M sucrose with a Brinkmann Polytron at setting 5, 30 sec. The homogenate was centrifuged at 900×g for 10 min at 4° C., and the supernatant was collected and centrifuged at 22,000×g for 20 min at 4° C. The pellet was resuspended in 10 volumes of Tris-HCl buffer (50 mM, pH 7.4), incubated at 37° C. for 30 min, and centrifuged at 22,000×g for 20 min at 4° C. Following this, the pellet was resuspended in Tris buffer and frozen in 5-10 mL aliquots corresponding to a tissue concentration of 100 mg/mL, at -70° C. Binding characteristics of the membranes were stable for at least one month when stored at -70° C.

[3] = system: apomorphine-induced climbing; experiment: apomorphine-induced climbing assay; assay type: in vivo, mice (male, Swiss-Webster); settings: Mus musculus, ip; test compound i.p.; apomorphine 5.5 mg/kg s.c.; rated 20-30 min post drug; Dunnett's Test P<0.05; read-out: Apomorphine-induced climbing assay MED (minimal effective dose for inhibition)
Experimental: (§1) Representative compounds of the invention were tested in vivo in the apomorphine-induced climbing assay and the apomorphine-induced stereotypy assay using the following procedures.
(§2) Male, Swiss-Webster mice (Taconic Farms, Germantown, New York), weight 20-30 grams, were grouped housed in colony facilities for a minimum of two days prior to testing. The colony facility was maintained on a 12 hour light/dark cycle (light: 0600-1800 hours) with water and Agway Prolab 100 rat chow available ad libitum. Each mouse was given an injection of test compound i.p. followed immediately by a s.c. injection of apomorphine 5.5 mg/kg or vehicle. All drugs were administered in a volume of 10 ml/kg body weight. The mice were then placed in individual cylindrical stainless steel climbing cages; 14.5 cm tall, 12 cm in diameter, with walls consisting of 1/16" O.D. bars spaced 0.8-1.0 cm apart, and were allowed to habituate to this environment for 20 minutes. […] Briefly, a (0) was scored for absence of any stereotypic behavior, infrequent stereotypic movements were scored as (1), a (2) was scored for permanent sniffing and a score of (3) indicated intense and continuous stereotypic behavior. Treatment means for the 10 minute totals were calculated for climbing and stereotypy. […] A minimal effective dose (MED) for inhibition was determined for each parameter based on these analyses.

[4] = system: apomorphine-induced stereotypy; experiment: apomorphine-induced stereotypy assay; assay type: in vivo, mice (male, Swiss-Webster); settings: Mus musculus, ip; test compound i.p.; apomorphine 5.5 mg/kg s.c.; rated 20-30 min post drug; Dunnett's Test P<0.05; read-out: Apomorphine-induced stereotypy assay MED (minimal effective dose for inhibition)
Experimental: as §1, §2

[5] = [^3 H](+)-pentazocine approx. 0.5 nM, 37° C., 150 min
[6] = at 10 μM, [^3 H](+)-pentazocine approx. 0.5 nM, 37° C., 150 min

T1 sequence (Q60492 whole entry): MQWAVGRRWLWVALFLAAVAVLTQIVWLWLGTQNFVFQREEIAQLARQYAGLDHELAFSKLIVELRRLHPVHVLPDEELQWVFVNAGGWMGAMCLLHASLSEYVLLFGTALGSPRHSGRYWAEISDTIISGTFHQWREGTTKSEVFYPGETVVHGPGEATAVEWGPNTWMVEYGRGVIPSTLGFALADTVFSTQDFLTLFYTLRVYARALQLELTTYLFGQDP

Compound | Ki [1, 5] [nM] | Ki [2] [nM] | minimal effective dose [3] [µmol/kg] | minimal effective dose [4] [µmol/kg] | inhibition at 10 µM [1, 6] [%] | Percent Inhibition of [^3 H]DTG binding [2] [%] | inhibition at 10 µM [1] [%]
CCOC(=O)C1CC2(C)C(C)CC1N(Cc1ccccc1)C2C (stereo not shown) [Example 2b, ethyl 3,4,8-trimethyl-2-(phenylmethyl)-2-azabicyclo[2.2.2]octane-6-carboxylate] | 242 | 240 | 317 | 951 |  |  | 
CCOC(=O)C1(C(=O)OCC)CC2(C)C(C)CC1N(Cc1ccccc1)C2C (stereo not shown) [Example 2c, diethyl 3,4,8-trimethyl-2-(phenylmethyl)-2-azabicyclo-[2.2.2] octane-6,6-dicarboxylate] | 1190 | 1240 |  |  | 79 | 79 | 
CC=C1CC2C(C(=O)OCC)CC1C(Cc1ccccc1)N2Cc1ccccc1 (stereo not shown) [Example 3e, ethyl 2,3-di(phenylmethyl)-8-ethylidene-2-azabicyclo-[2.2.2]octane-6-carboxylatetrihydrochloride hydrobromide] |  |  |  |  | 33 | 57 | 
CCC1CC2C(C(C)(C)O)CC1C(Cc1ccccc1)N2C (stereo not drawn) [Example 4e, 3-(phenylmethyl)-8-ethyl-2,α,α-trimethyl-2-azabicyclo[2.2.2]octane-6-methanol] | 2960 | 2880 |  |  | 72 | 75 | 
CCOC(=O)C1CC23CCCCC2CC1N(Cc1ccccc1)C3C (stereo not shown) [Example 5e, Ethyl 2,3,4,4a,5,6,7,8-octahydro-1-methyl-2-(phenylmethyl)-1H-3,8a-ethanoisoquinoline-10-carboxylate hydrochloride] | 332 | 357 |  |  |  |  | 97
CCOC(=O)C1(SC)CC2(C)C(C)CC1N(C)C2C (stereo not shown) [Example 6, ethyl 2,3,4,8-tetramethyl-6-(methylthio)-2-azabicyclo[2.2.2]octane-6-carboxylate] | 5950 | 2710 |  |  | 63 | 75 | 
CC1CC2C(C(C)(C)O)CC1(C)C(C)N2Cc1ccccc1 (stereo not drawn) [Example 7, α,α,3,4,8-pentamethyl-2-(phenylmethyl)-2-azabicyclo[2.2.2]octane-6-methanol] | 6060 | 6110 |  |  | 59 |  | 
CCOC(=O)C1(C)CC2(C)C(C)CC1N(Cc1ccccc1)C2C (stereo not shown) [Example 8a, ethyl 2-(phenylmethyl)-3,4,6,8-tetramethyl-2-azabicyclo[2.2.2]octane-6-carboxylate] | 9820 | 6470 |  |  |  | 29 | 
CC(=O)C1(C)CC2(C)C(C)CC1N(Cc1ccccc1)C2C (stereo not shown) [Example 8b, 1-[3,4,6,8-tetramethyl-2-(phenylmethyl) -2-azabicyclo[2.2.2]oct-6-yl]ethanone] | 8880 | 4560 |  |  | 47 | 65 | 
CCOC(=O)C1CC2C(C)NC1CC2C(C)C (stereo not shown) [Example 9e, ethyl 3-methyl-8-isopropyl-2-azabicyclo-[2.2.2]octane-6-carboxylate] |  |  |  |  |  | 48 | 30
CCOC(=O)C1CC2C(C(C)C)CC1N(Cc1ccccc1)C2C (stereo not shown) [Example 9f, ethyl 3-methyl-8-(isopropyl)-2-(phenylmethyl)-2-azabicyclo[2.2.2]octane-6-carboxylate] | 141 | 75.5 | 304 | 304 |  |  | 
CC1CC2C(CO)CC1(C)C(C)N2C (stereo not shown) [Example 10, 2,3,4,8-tetramethyl-2-azabicyclo[2.2.2]octane-6-methanol] |  |  |  |  |  | 48 | 24
CC(=O)C1CC2C(C(C)C)CC1N(Cc1ccccc1)C2C (stereo not shown) [Example 11b, 1-[3-methyl-8-isopropyl-2-(phenylmethyl)-2-azabicyclo[2.2.2]octan-6-yl]-ethanone] | 2620 | 1010 |  |  | 77 | 86 | 
